Measured values from ChEMBL document CHEMBL1142042, “Nonpeptide alpha(v)beta3 antagonists: identification of potent, chain-shortened 7-oxo RGD mimetics” (Bioorg Med Chem Lett, 2005).

What was measured:
[1] = Clearance when dosed intravenously at 0.2 mpk to dogs; n = 2; type: ADME, organism-based, Canis lupus familiaris; conditions: dog, in vivo, iv, 0.2 mg/kg
[2] = Plasma half life when dosed orally at 1 mpk and intravenously at 0.2 mpk to dogs; n = 2; type: ADME, organism-based, Canis lupus familiaris; conditions: dog
[3] = Partition coefficient (logP); type: physicochemical; conditions: octanol/water
[4] = Oral bioavailability in dog (dose 1 mg/kg); type: ADME, organism-based, Canis lupus familiaris; conditions: in vivo
[5] = In vitro inhibition of mouse osteoblast-like 1.8 cells transformation into osteoclasts; type: functional
[6] = biological target: Integrin alpha-V/beta-3 (Homo sapiens, UniProt P05106+P06756); assay: Inhibition of 2(S)-(4-125I-benzenesulphonylamino)-3-4-[2-(5,6,7,8-tetrahydro- [1,8]naphthyridin-2-yl)-ethyl]-benzoylamino-propionic acid binding to alphaV-beta3 integrin; type: protein-complex assay
Integrin alpha-V/beta-3, sequence (P05106 27-788 limits assumed): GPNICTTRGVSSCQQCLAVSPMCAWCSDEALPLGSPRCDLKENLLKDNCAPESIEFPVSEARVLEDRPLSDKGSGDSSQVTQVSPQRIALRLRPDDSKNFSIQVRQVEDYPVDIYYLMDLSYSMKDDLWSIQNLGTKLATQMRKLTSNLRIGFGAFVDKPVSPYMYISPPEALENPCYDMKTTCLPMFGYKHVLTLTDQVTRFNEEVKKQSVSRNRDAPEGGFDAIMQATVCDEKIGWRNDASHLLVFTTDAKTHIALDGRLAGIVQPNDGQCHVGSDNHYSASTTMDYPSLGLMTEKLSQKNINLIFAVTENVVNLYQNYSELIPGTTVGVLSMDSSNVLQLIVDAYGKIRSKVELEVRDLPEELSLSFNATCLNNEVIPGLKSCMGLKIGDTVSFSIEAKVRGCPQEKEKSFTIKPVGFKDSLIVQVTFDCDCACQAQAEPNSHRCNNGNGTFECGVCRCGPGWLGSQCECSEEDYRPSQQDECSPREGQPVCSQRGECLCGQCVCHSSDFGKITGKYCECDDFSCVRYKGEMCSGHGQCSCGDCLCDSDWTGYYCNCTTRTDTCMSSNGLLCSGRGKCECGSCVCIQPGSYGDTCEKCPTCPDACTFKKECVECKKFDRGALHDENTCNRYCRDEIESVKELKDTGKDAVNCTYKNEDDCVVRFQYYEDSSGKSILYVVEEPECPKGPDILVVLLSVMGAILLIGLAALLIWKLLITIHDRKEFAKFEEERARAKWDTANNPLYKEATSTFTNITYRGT
Integrin alpha-V/beta-3, sequence (P06756 31-889 limits assumed): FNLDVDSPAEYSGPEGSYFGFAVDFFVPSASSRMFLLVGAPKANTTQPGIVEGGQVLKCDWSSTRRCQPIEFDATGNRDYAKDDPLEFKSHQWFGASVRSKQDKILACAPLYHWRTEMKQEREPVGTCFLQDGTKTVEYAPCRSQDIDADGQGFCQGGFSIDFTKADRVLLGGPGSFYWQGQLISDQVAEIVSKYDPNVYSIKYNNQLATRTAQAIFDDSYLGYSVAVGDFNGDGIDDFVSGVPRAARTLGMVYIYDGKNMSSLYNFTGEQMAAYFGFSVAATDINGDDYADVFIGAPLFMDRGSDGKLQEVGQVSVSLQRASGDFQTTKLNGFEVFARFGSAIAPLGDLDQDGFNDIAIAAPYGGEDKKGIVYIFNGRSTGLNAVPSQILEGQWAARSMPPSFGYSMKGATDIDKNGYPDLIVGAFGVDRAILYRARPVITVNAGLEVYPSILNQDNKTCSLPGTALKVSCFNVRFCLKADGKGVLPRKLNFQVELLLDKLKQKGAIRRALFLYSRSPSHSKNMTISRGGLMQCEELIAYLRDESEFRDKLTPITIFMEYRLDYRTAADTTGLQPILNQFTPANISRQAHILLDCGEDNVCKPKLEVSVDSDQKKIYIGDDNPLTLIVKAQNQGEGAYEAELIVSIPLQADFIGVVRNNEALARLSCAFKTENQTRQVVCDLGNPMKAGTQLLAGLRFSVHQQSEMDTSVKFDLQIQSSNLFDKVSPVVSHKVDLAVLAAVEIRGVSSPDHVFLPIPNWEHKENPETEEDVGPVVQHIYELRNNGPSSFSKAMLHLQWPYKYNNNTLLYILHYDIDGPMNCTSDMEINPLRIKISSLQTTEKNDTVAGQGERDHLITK
Integrin alpha-V/beta-3, sequence (P06756 891-1048 limits assumed): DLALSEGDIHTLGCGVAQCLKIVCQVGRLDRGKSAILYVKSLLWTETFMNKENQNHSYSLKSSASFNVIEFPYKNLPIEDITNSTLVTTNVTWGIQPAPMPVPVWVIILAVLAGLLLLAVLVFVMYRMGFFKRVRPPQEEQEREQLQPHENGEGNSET

Row | Compound | clearance [1] | half-life [2] | logP [3] | bioavailability [4] | IC50 [5] | IC50 [6]
1 | COc1ccc([C@@H](CCC[C@H](O)CCc2ccc3c(n2)NCCC3)CC(=O)O)cn1 | 2.5 mL/min/kg | 6.1 h | 0.1 | 60% | 8 nM | 0.24 nM
2 | COc1ccc([C@@H](CCCCCCc2ccc3c(n2)NCCC3)CC(=O)O)cn1 | 4 mL/min/kg | 9 h | – | – | 39 nM | –
3 | COc1ccc([C@@H](CCCC(=O)CCc2ccc3c(n2)NCCC3)CC(=O)O)cn1 | 6.7 mL/min/kg | 7 h | 0 | 75% | 12 nM | 0.16 nM
4 | COc1ccc([C@@H](CCC[C@@H](O)CCc2ccc3c(n2)NCCC3)CC(=O)O)cn1 | – | – | 0 | – | 36 nM | 0.24 nM
